Laboratory results from EP4786487A1, “PEPTIDE” (Peptidream Inc, priority 2023, dated 2025).
Like-named read-outs stand apart in the source and are kept apart here. One block for each molecule: values may come before it. Starred links: 1 amine or outer side, 2 acyl side, 3 side chain; linkers in the order of their positions; H or OH if unused. Positions of bridges follow the written chain, without caps; N, C: chain ends. Non-standard residues stand in square brackets, D forms with d. Residues, ends and D or L forms follow the SMILES beside them. *: point of attachment. Trp(6-OH,1-(4-HO2C-Ph)) = N[C@@H](Cc1cn(-c2ccc(C(=O)O)cc2)c2cc(O)ccc12)C(=O)O; Phe(3-OCH2COOH) = N[C@@H](Cc1cccc(OCC(=O)O)c1)C(=O)O; N(CH2CH2CO)Gly = O=C(CN(CCC(=O)[*:3])[*:1])[*:2]; Phe(4-COOH) = N[C@@H](Cc1ccc(C(=O)O)cc1)C(=O)O; Piperazinyl(4-CH2COOH) = O=C(O)CN1CCN(*)CC1; Gly(decyl) = CCCCCCCCCC[C@H](N)C(=O)O; Gly(N(CH2)3COOH) = O=C(O)CCCNCC(=O)O; X1 = CCCCCCC[C@H](N[*:1])C(=O)[*:2]; NMeF = CN[C@@H](Cc1ccccc1)C(=O)O; NMeE = CN[C@@H](CCC(=O)O)C(=O)O; NMeDap = CN[C@@H](CN)C(=O)O; NMeA = CN[C@@H](C)C(=O)O; Bn = c1ccc(C*)cc1; Sar = CNCC(=O)O

Tests used:
Myostatin [1] = assay: Reporter gene assay for myostatin signaling in HepG2 cell line, Evaluation Procedure (1), myostatin inhibition; format: cell-based; conditions: GDF-11 IC50 versus Myostatin IC50
Summary of the method: (§1)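 HepG2 cells transfected with pGL3(CAGA)12-luciferase reporter, serum-starved in 0.1% BSA medium, then stimulated with myostatin or GDF-11 plus 4-fold peptide dilutions (0.006–100 nmol/L for myostatin, 0.12–2000 nmol/L for GDF-11) for 20–24 h at 37 °C. Luminescence read with One-Glo; IC50 calculated.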

Myostatin [2] = target: T1, Myostatin (Homo sapiens, UniProt O14793); assay: as above; format: cell-based
T1 construct: active myostatin (also called mature myostatin) is a homodimer consisting of two C-terminal growth factor domains; purchased R&D systems 788-G8/CF
T1 sequence (O14793 267-375): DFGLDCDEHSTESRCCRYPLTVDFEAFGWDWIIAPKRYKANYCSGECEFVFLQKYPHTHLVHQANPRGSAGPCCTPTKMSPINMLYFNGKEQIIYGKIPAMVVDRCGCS
Summary of the method: as §1

B10 mdx model mice = assay: Improvement of muscle strength and inhibition of muscle necrosis in B10 mdx mice; format: in vivo, C57BL/10-mdx/Jcl mice; conditions: 10 mg/kg subcutaneous
Procedure: (§2) In this Example, the effect of the peptide Myostatin_99_Variant_07 (SEQ ID NO: 3), synthesized according to Example 1, on improvement of muscle strength in DMD model mice was evaluated using B10 mdx model mice (NPL 17).
(§3) To five-week-old male C57BL/10-mdx/Jcl (CLEA Japan, Inc.) mice, the peptide or solvent control (Vehicle) PBS was subcutaneously administered as shown in Table 11 three times a week or every day for 5 weeks.
(§4) Using a smart-type grip strength meter for rats and mice (MK-380V; Muromachi Kikai Co., Ltd.), forelimb and hindlimb grip strength measurements and body weight measurements were performed on the day of completion of the acclimation period (grouping day), and on Days 7, 14, 21, 27, and 33. The measurements were conducted with individual identification numbers blinded so that the examiner was unaware of the test conditions of the mice. The grip strength was measured seven times consecutively, and the average of five points, excluding the two points: the highest and lowest values, was used as individual data. The body weight was weighed using an electronic balance.
(§5) Serum creatine kinase (CK) concentrations (mean ± SEM) on Day 35, when the animals were euthanized, were also examined.

[3] = Muscle strength, body weight and serum creatine kinase in B10 mdx mice; format: in vivo, C57BL/10-mdx/Jcl mice; conditions: 10 mg/kg subcutaneous
Procedure: as §2, §3, §4, §5

[4] = Distribution of peptide in skeletal muscle (plasma and quadriceps concentrations); format: in vivo; conditions: mouse, sc, 10 mg/kg subcutaneously, male CD1 mice; for level at 24 h: 24 hr after administration; for level at 48 h: 48 hr after administration; for level at 72 h: 72 hr after administration
Procedure: The peptide Myostatin_99_Variant_07 (SEQ ID NO: 3), synthesized according to Example 1, was administered subcutaneously at 10 mg/kg to male 6-8-week-old CD1 mice. Plasma and quadriceps concentrations were measured at 24, 48, and 72 hours after administration. […]
Note that plasma was separated from blood by centrifugation; 25% homogenate of tissue was prepared and deproteinized with 5% formic acid-containing acetonitrile; and the drug concentrations were determined using an LC/MS/MS system (LCMS-8060, Shimadzu Corporation).

GDF-11 [5] = target: T2, GDF-11 (Homo sapiens, UniProt O95390); assay: Reporter gene assay for myostatin signaling in HepG2 cell line, Evaluation Procedure (1), GDF-11 inhibition; format: cell-based
T2 construct: purchased R&D systems 1958-GD-G8/CF
T2 sequence (O95390 299-407): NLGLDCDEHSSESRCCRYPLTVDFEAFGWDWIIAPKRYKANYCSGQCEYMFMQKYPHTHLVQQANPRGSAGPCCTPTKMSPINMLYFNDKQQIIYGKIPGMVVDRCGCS
Summary of the method: as §1

Myostatin [6] = target: T1, Myostatin; assay: HepG2 reporter gene assay, Evaluation Procedure (2): 2-concentrations assay, myostatin inhibition; format: cell-based; conditions: Myostatin 10 ng/mL, HepG2; for inhibition at 0.03 µM: peptide 30nM, read-out: Myostatin Inhibition 30nM; for inhibition at 0.1 µM: peptide 100nM, read-out: Myostatin Inhibition 100nM
Summary of the method: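 HepG2 cells (HB-8065, ATCC) carrying the transfected pGL3(CAGA)12-luc reporter plasmid were treated with myostatin (788-G8/CF, R&D systems) at a final concentration of 10 ng/mL plus peptide and incubated at 37°C, 5% CO2 for 20 to 24 hours. Luminescence was read after adding PBS mixed 1:1 with One-Glo substrate, and inhibition rate was calculated.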

GDF-11 [7] = target: T2, GDF-11; assay: HepG2 reporter gene assay, Evaluation Procedure (2): 2-concentrations assay, GDF-11 inhibition; format: cell-based; conditions: GDF-11 10 ng/mL
Summary of the method: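 HepG2 cells carrying the transfected pGL3(CAGA)12-luc reporter, a pGL3 vector with luciferase placed downstream of 12 CAGA repeats, were stimulated with GDF-11 at a final 10 ng/mL together with test peptide. Blank wells received no GDF-11 and no peptide. Plates were incubated 20 to 24 hours at 37°C with 5% CO2. Luminescence from One-Glo substrate was read to calculate percent inhibition.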

GDF-11 [8] = assay: Reporter gene assay for myostatin signaling in HepG2 cell line, Evaluation Procedure (1), GDF-11 inhibition; format: cell-based; conditions: GDF-11 IC50 relative to myostatin IC50, HepG2
Summary of the method: as §1

[9] = plasma, read-out: Plasma concentration
[10] = quadriceps muscle, quadriceps, read-out: Intramuscular concentration
[11] = Method B: Myostatin 1 ng/mL, read-out: IC50 (Luciferase) Myostatin HepG2
[12] = Method B: GDF-11 1 ng/mL, read-out: IC50 (Luciferase) GDF-11 HepG2

- IC50 (Myostatin [2]; Method A: Myostatin 10 ng/mL, read-out: IC50 (Luciferase) Myostatin HepG2): 26.2 nM
- level at 24 h [4, 9]: 232 ng/mL
- level at 48 h [4, 9]: 55 ng/mL
- level at 72 h [4, 9]: 40 ng/mL
- level at 24 h [4, 10]: 283 ng/mL
- level at 48 h [4, 10]: 190 ng/mL
- level at 72 h [4, 10]: 74 ng/mL
- IC50 (GDF-11 [5]; Method A: GDF-11 10 ng/mL, read-out: IC50 (Luciferase) GDF-11 HepG2): 1050 nM
Structure (SMILES): CC[C@H](C)[C@@H]1NC(=O)[C@H](Cc2ccccc2)N(C)C(=O)[C@H](Cc2ccc(O)cc2)NC(=O)[C@H](Cc2c[nH]c3ccccc23)NC(=O)[C@H](C)NC(=O)CN(CCCC(=O)O)C(=O)CSC[C@H](C(=O)O)NC(=O)[C@H](Cc2ccccc2)N(C)C(=O)[C@H](C)N(C)C(=O)[C@H](CC(C)C)NC(=O)[C@H](Cc2ccccc2)N(C)C(=O)[C@H](CCCNC(=N)N)NC(=O)[C@H](Cc2ccc(C(=O)O)cc2)NC(=O)[C@H](Cc2ccc(O)cc2)NC(=O)CN(C)C1=O [Myostatin_99_Variant_07] ({CH2CO}-[Gly(N(CH2)3COOH)]AWY[NMeF]I[Sar]Y[Phe(4-COOH)]R[NMeF]L[NMeA][NMeF][dC]-OH; thioether N-15)
- Selectivity (Myostatin [1]; Method A): 40
- time-course change in grip strength (B10 mdx model mice; 3 times a week, vs. PBS Vehicle group, Fig. 3): continuous increase in grip strength
- time-course change in body weight (B10 mdx model mice; 3 times a week, vs. Vehicle group, Fig. 4): body weight to continuously increase
- Serum creatine kinase (CK) concentrations (mean ± SEM) (B10 mdx model mice; Day 35, Vehicle group 3,836 ± 754 IU/L): 3,247 ± 558 IU/L
- time-course change in grip strength ([3]; vs. PBS (Fig. 3)): continuous increase in grip strength was observed
- time-course change in body weight ([3]; vs. Vehicle (Fig. 4)): cause the body weight to continuously increase

- IC50 (Myostatin [2]; [11]): 0.1 nM
- inhibition at 0.03 µM (Myostatin [6]): 91%
- inhibition at 0.1 µM (Myostatin [6]): 98%
- IC50 (GDF-11 [5]; [12]): 5.3 nM
Structure (SMILES): CCCCCCCCCC[C@@H]1NC(=O)[C@H](Cc2ccccc2)N(C)C(=O)[C@H](CCCNC(=N)N)NC(=O)[C@H](Cc2ccc(C(=O)O)cc2)NC(=O)[C@H](Cc2cccc(OCC(=O)O)c2)NC(=O)CN(C)C(=O)[C@H]([C@@H](C)CC)NC(=O)[C@H](Cc2ccccc2)N(C)C(=O)[C@H](Cc2ccc(O)cc2)NC(=O)[C@H](Cc2c[nH]c3ccccc23)NC(=O)[C@H](C)NC(=O)[C@H](C)NC(=O)CSC[C@H](C(=O)N2CCN(CC(=O)O)CC2)NC(=O)[C@H](Cc2ccccc2)N(C)C(=O)[C@H](CCC(=O)O)N(C)C1=O [Myostatin_99_v265] ({CH2CO}-AAWY[NMeF]I[Sar][Phe(3-OCH2COOH)][Phe(4-COOH)]R[NMeF][Gly(decyl)][NMeE][NMeF][dC]-{Piperazinyl(4-CH2COOH)}; thioether N-15)
- Selectivity (Myostatin [1]; Method B): 55

- IC50 (Myostatin [2]; [11]): 0.11 nM
- inhibition at 0.03 µM (Myostatin [6]): 100%
- inhibition at 0.1 µM (Myostatin [6]): 100%
- inhibition at 0.03 µM (GDF-11 [7]; HepG2, peptide 30nM, read-out: GDF11 Inhibition 30nM): 12%
- inhibition at 0.1 µM (GDF-11 [7]; HepG2, peptide 100nM, read-out: GDF11 Inhibition 100nM): 55%
- IC50 (GDF-11 [5]; [12]): 6.8 nM
Structure (SMILES): CCCCCCC[C@@H]1NC(=O)[C@H](Cc2ccccc2)N(C)C(=O)[C@H](CCCNC(=N)N)NC(=O)[C@H](Cc2ccc(C(=O)O)cc2)NC(=O)[C@H](Cc2cccc(OCC(=O)O)c2)NC(=O)CN(C)C(=O)[C@H]([C@@H](C)CC)NC(=O)[C@H](Cc2ccccc2)N(C)C(=O)[C@H](Cc2ccc(OCc3ccccc3)cc2)NC(=O)[C@H](Cc2c[nH]c3ccccc23)NC(=O)[C@H](C)NC(=O)[C@H](C)NC(=O)CSC[C@H](C(=O)N2CCN(CC(=O)O)CC2)NC(=O)[C@H](Cc2ccccc2)N(C)C(=O)[C@H](C)N(C)C1=O [Myostatin_99_v298] ({CH2CO}-AAWY(Bn)[NMeF]I[Sar][Phe(3-OCH2COOH)][Phe(4-COOH)]R[NMeF][X1][NMeA][NMeF][dC]-{Piperazinyl(4-CH2COOH)}; thioether N-15)
- Selectivity (Myostatin [1]; Method B): 62

- IC50 (Myostatin [2]; HepG2, luciferase reporter, Evaluation Procedure (1), Method D): 0.12 nM
- IC50 (GDF-11 [5]; HepG2, luciferase reporter, Evaluation Procedure (1), Method D, read-out: IC50 (Luciferase) GDP-11 HepG2): 45.4 nM
Structure (SMILES): CCCCCCC[C@@H]1NC(=O)[C@H](Cc2ccccc2)N(C)C(=O)[C@H](CCCNC(=N)N)NC(=O)[C@H](Cc2ccc(C(=O)O)cc2)NC(=O)[C@H](Cc2cccc(OCC(=O)O)c2)NC(=O)[C@H]2CCCN2C(=O)[C@H]([C@@H](C)CC)NC(=O)[C@H](Cc2ccccc2)N(C)C(=O)[C@H](Cc2ccc(O)cc2)NC(=O)[C@H](Cc2cn(-c3ccc(C(=O)O)cc3)c3cc(O)ccc23)NC(=O)[C@H](C)NC(=O)CN2CCC(=O)NC[C@@H](C(=O)N(C)[C@@H](Cc3ccccc3)C(=O)N[C@H](C)C(=O)N(C)[C@@H](C)C2=O)N(C)C1=O [Myostatin_99_v489] (cyclo(A[Trp(6-OH,1-(4-HO2C-Ph))]Y[NMeF]I[dP][Phe(3-OCH2COOH)][Phe(4-COOH)]R[NMeF][X1][NMeDap][NMeF][dA][NMeA][N(CH2CH2CO)Gly]); lactam 12-16)
- Selectivity (GDF-11 [8]): 365.6
